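At the GI50, growth is halved. TGI is the concentration that stops growth completely.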
Assays:
Assay in all cases: DTP human tumour cell line panel, 384-well format
786-0 renal = test system: 786-0 renal
A498 renal = test system: A498 renal
A549 NSCLC = test system: A549 NSCLC
ACHN renal = test system: ACHN renal
BT-549 breast = test system: BT-549 breast
CAKI-1 renal = test system: CAKI-1 renal
CCRF-CEM leukemia = test system: CCRF-CEM leukemia
COLO 205 colon = test system: COLO 205 colon
DU-145 prostate = test system: DU-145 prostate
EKVX NSCLC = test system: EKVX NSCLC
HCC-2998 colon = test system: HCC-2998 colon
HCT-116 colon = test system: HCT-116 colon
HCT-15 colon = test system: HCT-15 colon
HL-60(TB) leukemia = test system: HL-60(TB) leukemia
HOP-62 NSCLC = test system: HOP-62 NSCLC
HOP-92 NSCLC = test system: HOP-92 NSCLC
HS 578T breast = test system: HS 578T breast
HT29 colon = test system: HT29 colon
IGROV1 ovarian = test system: IGROV1 ovarian
KM12 colon = test system: KM12 colon
LOX IMVI melanoma = test system: LOX IMVI melanoma
M14 melanoma = test system: M14 melanoma
MALME-3M melanoma = test system: MALME-3M melanoma
MCF7 breast = test system: MCF7 breast
MDA-MB-231 breast = test system: MDA-MB-231 breast
MDA-MB-435 melanoma = test system: MDA-MB-435 melanoma
MDA-MB-468 breast = test system: MDA-MB-468 breast
MOLT-4 leukemia = test system: MOLT-4 leukemia
NCI-H226 lung = test system: NCI-H226 lung
NCI-H23 lung = test system: NCI-H23 lung
NCI-H322M lung = test system: NCI-H322M lung
NCI-H460 NSCLC = test system: NCI-H460 NSCLC
NCI-H522 lung = test system: NCI-H522 lung
NCI/ADR-RES ovarian = test system: NCI/ADR-RES ovarian
OVCAR-3 ovarian = test system: OVCAR-3 ovarian
OVCAR-4 ovarian = test system: OVCAR-4 ovarian
OVCAR-5 ovarian = test system: OVCAR-5 ovarian
OVCAR-8 ovarian = test system: OVCAR-8 ovarian
PC-3 prostate = test system: PC-3 prostate
RPMI-8226 leukemia = test system: RPMI-8226 leukemia
RXF 393 renal = test system: RXF 393 renal
SF-268 CNS = test system: SF-268 CNS
SF-295 CNS = test system: SF-295 CNS
SF-539 CNS = test system: SF-539 CNS
SK-MEL-28 melanoma = test system: SK-MEL-28 melanoma
SK-MEL-5 melanoma = test system: SK-MEL-5 melanoma
SK-OV-3 ovarian = test system: SK-OV-3 ovarian
SN12C renal = test system: SN12C renal
SNB-19 CNS = test system: SNB-19 CNS
SNB-75 CNS = test system: SNB-75 CNS
SR leukemia = test system: SR leukemia
SW-620 colon = test system: SW-620 colon
T-47D breast = test system: T-47D breast
TK-10 renal = test system: TK-10 renal
U251 glioblastoma = test system: U251 glioblastoma
UACC-257 melanoma = test system: UACC-257 melanoma
UACC-62 melanoma = test system: UACC-62 melanoma
UO-31 renal = test system: UO-31 renal

C=CC(=O)N1CCC([C@@H]2CCNc3c(C(N)=O)c(-c4ccc(Oc5ccccc5)cc4)nn32)CC1
GI50 (786-0 renal): 15.4 µM | TGI (786-0 renal): 37.7 µM | GI50 (A498 renal): 15.1 µM | TGI (A498 renal): > 56.3 µM | GI50 (A549 NSCLC): 16.2 µM | TGI (A549 NSCLC): > 52.4 µM | GI50 (ACHN renal): 9.75 µM | TGI (ACHN renal): 44.6 µM | GI50 (BT-549 breast): 13.4 µM | TGI (BT-549 breast): 26.4 µM | GI50 (CAKI-1 renal): 14.7 µM | TGI (CAKI-1 renal): 47.7 µM | GI50 (CCRF-CEM leukemia): 19.7 µM | TGI (CCRF-CEM leukemia): 35 µM | GI50 (COLO 205 colon): 21.7 µM | TGI (COLO 205 colon): 45.6 µM | GI50 (DU-145 prostate): 11.6 µM | TGI (DU-145 prostate): 30.6 µM | GI50 (EKVX NSCLC): 6.77 µM | TGI (EKVX NSCLC): 31.2 µM | GI50 (HCC-2998 colon): 11.7 µM | TGI (HCC-2998 colon): 24.2 µM | GI50 (HCT-116 colon): 17.6 µM | TGI (HCT-116 colon): 32.8 µM | GI50 (HCT-15 colon): 16.8 µM | TGI (HCT-15 colon): 32.1 µM | GI50 (HL-60(TB) leukemia): 17.1 µM | TGI (HL-60(TB) leukemia): 31.3 µM | GI50 (HOP-62 NSCLC): 19.6 µM | TGI (HOP-62 NSCLC): 49.6 µM | GI50 (HOP-92 NSCLC): 14.6 µM | TGI (HOP-92 NSCLC): 29.7 µM | GI50 (HS 578T breast): 16 µM | TGI (HS 578T breast): 30.8 µM | GI50 (HT29 colon): 17.8 µM | TGI (HT29 colon): 33.4 µM | GI50 (IGROV1 ovarian): 4.22 µM | TGI (IGROV1 ovarian): 16.9 µM | GI50 (KM12 colon): 42.5 µM | TGI (KM12 colon): > 100 µM | GI50 (LOX IMVI melanoma): 14.9 µM | TGI (LOX IMVI melanoma): 28.5 µM | GI50 (M14 melanoma): 18 µM | TGI (M14 melanoma): 36.8 µM | GI50 (MALME-3M melanoma): 15.3 µM | TGI (MALME-3M melanoma): 29.1 µM | GI50 (MCF7 breast): 23.7 µM | TGI (MCF7 breast): > 69 µM | GI50 (MDA-MB-231 breast): 17.4 µM | TGI (MDA-MB-231 breast): 33.6 µM | GI50 (MDA-MB-435 melanoma): 23 µM | TGI (MDA-MB-435 melanoma): 53.7 µM | GI50 (MDA-MB-468 breast): 0.684 µM | TGI (MDA-MB-468 breast): 4.09 µM | GI50 (MOLT-4 leukemia): 14.3 µM | TGI (MOLT-4 leukemia): 27.6 µM | GI50 (NCI-H226 lung): 14.2 µM | TGI (NCI-H226 lung): 32.3 µM | GI50 (NCI-H23 lung): 16.8 µM | TGI (NCI-H23 lung): 31.6 µM | GI50 (NCI-H322M lung): 2.53 µM | TGI (NCI-H322M lung): 15 µM | GI50 (NCI-H460 NSCLC): 25.2 µM | TGI (NCI-H460 NSCLC): > 61.8 µM | GI50 (NCI-H522 lung): 3.46 µM | TGI (NCI-H522 lung): 12.1 µM | GI50 (NCI/ADR-RES ovarian): 16.9 µM | TGI (NCI/ADR-RES ovarian): 36.5 µM | GI50 (OVCAR-3 ovarian): 9.13 µM | TGI (OVCAR-3 ovarian): 25.6 µM | GI50 (OVCAR-4 ovarian): 15.5 µM | TGI (OVCAR-4 ovarian): 45.9 µM | GI50 (OVCAR-5 ovarian): 48.2 µM | TGI (OVCAR-5 ovarian): > 100 µM | GI50 (OVCAR-8 ovarian): 17.2 µM | TGI (OVCAR-8 ovarian): 36.1 µM | GI50 (PC-3 prostate): 31.6 µM | TGI (PC-3 prostate): > 86 µM | GI50 (RPMI-8226 leukemia): 16.3 µM | TGI (RPMI-8226 leukemia): 30.7 µM | GI50 (RXF 393 renal): 7.6 µM | TGI (RXF 393 renal): 20.2 µM | GI50 (SF-268 CNS): 15.4 µM | TGI (SF-268 CNS): 40.6 µM | GI50 (SF-295 CNS): 28.5 µM | TGI (SF-295 CNS): > 80.2 µM | GI50 (SF-539 CNS): 17.8 µM | TGI (SF-539 CNS): 35.7 µM | GI50 (SK-MEL-28 melanoma): 18 µM | TGI (SK-MEL-28 melanoma): 33.6 µM | GI50 (SK-MEL-5 melanoma): 15.6 µM | TGI (SK-MEL-5 melanoma): 30 µM | GI50 (SK-OV-3 ovarian): 14.2 µM | TGI (SK-OV-3 ovarian): > 69.8 µM | GI50 (SN12C renal): 17.6 µM | TGI (SN12C renal): 55 µM | GI50 (SNB-19 CNS): 20 µM | TGI (SNB-19 CNS): 51 µM | GI50 (SNB-75 CNS): 17.4 µM | TGI (SNB-75 CNS): 50.6 µM | GI50 (SR leukemia): 14.2 µM | TGI (SR leukemia): 27.6 µM | GI50 (SW-620 colon): 18.7 µM | TGI (SW-620 colon): 36.5 µM | GI50 (T-47D breast): 7.05 µM | TGI (T-47D breast): > 77.2 µM | GI50 (TK-10 renal): 5.89 µM | TGI (TK-10 renal): 27.3 µM | GI50 (U251 glioblastoma): 19.4 µM | TGI (U251 glioblastoma): 40.7 µM | GI50 (UACC-257 melanoma): 17.8 µM | TGI (UACC-257 melanoma): 35.3 µM | GI50 (UACC-62 melanoma): 16.7 µM | TGI (UACC-62 melanoma): 34 µM | GI50 (UO-31 renal): 12.1 µM | TGI (UO-31 renal): > 80.8 µM
